# Measured values published in PubChem BioAssay (NCI).
#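 Tested at 5 concentrations; 48 h exposure; 96-well plates; endpoints linearly interpolated, else capped at highest concentration. Abbreviation: GI50, concentration required for 50% inhibition of growth. TGI is the concentration that stops growth completely.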
# Columns and labels:
# Assay in all cases: DTP human tumour cell line panel, 48 h
# 786-0 renal = tested on: 786-0 renal
# A498 renal = tested on: A498 renal
# A549 NSCLC = tested on: A549 NSCLC
# ACHN renal = tested on: ACHN renal
# BT-549 breast = tested on: BT-549 breast
# CAKI-1 renal = tested on: CAKI-1 renal
# CCRF-CEM leukemia = tested on: CCRF-CEM leukemia
# COLO 205 colon = tested on: COLO 205 colon
# DU-145 prostate = tested on: DU-145 prostate
# EKVX NSCLC = tested on: EKVX NSCLC
# HCC-2998 colon = tested on: HCC-2998 colon
# HCT-116 colon = tested on: HCT-116 colon
# HCT-15 colon = tested on: HCT-15 colon
# HL-60(TB) leukemia = tested on: HL-60(TB) leukemia
# HOP-62 NSCLC = tested on: HOP-62 NSCLC
# HOP-92 NSCLC = tested on: HOP-92 NSCLC
# HS 578T breast = tested on: HS 578T breast
# HT29 colon = tested on: HT29 colon
# IGROV1 ovarian = tested on: IGROV1 ovarian
# K-562 leukemia = tested on: K-562 leukemia
# KM12 colon = tested on: KM12 colon
# LOX IMVI melanoma = tested on: LOX IMVI melanoma
# M14 melanoma = tested on: M14 melanoma
# MALME-3M melanoma = tested on: MALME-3M melanoma
# MCF7 breast = tested on: MCF7 breast
# MDA-MB-231 breast = tested on: MDA-MB-231 breast
# MDA-MB-435 = tested on: MDA-MB-435
# MOLT-4 leukemia = tested on: MOLT-4 leukemia
# NCI-H226 lung = tested on: NCI-H226 lung
# NCI-H23 lung = tested on: NCI-H23 lung
# NCI-H460 lung = tested on: NCI-H460 lung
# NCI-H522 lung = tested on: NCI-H522 lung
# NCI/ADR-RES ovarian = tested on: NCI/ADR-RES ovarian
# OVCAR-3 ovarian = tested on: OVCAR-3 ovarian
# OVCAR-4 ovarian = tested on: OVCAR-4 ovarian
# OVCAR-5 ovarian = tested on: OVCAR-5 ovarian
# OVCAR-8 ovarian = tested on: OVCAR-8 ovarian
# PC-3 prostate = tested on: PC-3 prostate
# RPMI-8226 leukemia = tested on: RPMI-8226 leukemia
# RXF 393 renal = tested on: RXF 393 renal
# SF-268 CNS = tested on: SF-268 CNS
# SF-295 CNS = tested on: SF-295 CNS
# SF-539 CNS = tested on: SF-539 CNS
# SK-MEL-2 melanoma = tested on: SK-MEL-2 melanoma
# SK-MEL-28 melanoma = tested on: SK-MEL-28 melanoma
# SK-MEL-5 melanoma = tested on: SK-MEL-5 melanoma
# SK-OV-3 ovarian = tested on: SK-OV-3 ovarian
# SN12C renal = tested on: SN12C renal
# SNB-19 CNS = tested on: SNB-19 CNS
# SNB-75 CNS = tested on: SNB-75 CNS
# SR leukemia = tested on: SR leukemia
# SW-620 colon = tested on: SW-620 colon
# T-47D breast = tested on: T-47D breast
# TK-10 renal = tested on: TK-10 renal
# U251 CNS = tested on: U251 CNS
# UACC-257 melanoma = tested on: UACC-257 melanoma
# UACC-62 melanoma = tested on: UACC-62 melanoma
# UO-31 renal = tested on: UO-31 renal
compound,measurement,setting,value
COc1cccc(/C=C2\COc3ccc(O)c(O)c3C2=O)c1OC,GI50,786-0 renal,1.89 µM
same,TGI,786-0 renal,5.62 µM
same,GI50,A498 renal,4.01 µM
same,TGI,A498 renal,13.9 µM
same,GI50,A549 NSCLC,2.58 µM
same,TGI,A549 NSCLC,14.2 µM
same,GI50,ACHN renal,3.27 µM
same,TGI,ACHN renal,12.2 µM
same,GI50,BT-549 breast,1.89 µM
same,TGI,BT-549 breast,8.7 µM
same,GI50,CAKI-1 renal,1.71 µM
same,TGI,CAKI-1 renal,4.69 µM
same,GI50,CCRF-CEM leukemia,0.61 µM
same,TGI,CCRF-CEM leukemia,> 100 µM
same,GI50,COLO 205 colon,3.01 µM
same,TGI,COLO 205 colon,8.38 µM
same,GI50,DU-145 prostate,2.61 µM
same,TGI,DU-145 prostate,10.4 µM
same,GI50,EKVX NSCLC,4.29 µM
same,TGI,EKVX NSCLC,16.9 µM
same,GI50,HCC-2998 colon,1.99 µM
same,TGI,HCC-2998 colon,3.96 µM
same,GI50,HCT-116 colon,1.9 µM
same,TGI,HCT-116 colon,4.89 µM
same,GI50,HCT-15 colon,1.6 µM
same,TGI,HCT-15 colon,10.5 µM
same,GI50,HL-60(TB) leukemia,1.04 µM
same,TGI,HL-60(TB) leukemia,> 100 µM
same,GI50,HOP-62 NSCLC,8.79 µM
same,TGI,HOP-62 NSCLC,22.8 µM
same,GI50,HOP-92 NSCLC,2.69 µM
same,TGI,HOP-92 NSCLC,8.81 µM
same,GI50,HS 578T breast,3.99 µM
same,TGI,HS 578T breast,31.5 µM
same,GI50,HT29 colon,3.33 µM
same,TGI,HT29 colon,10.1 µM
same,GI50,IGROV1 ovarian,2.62 µM
same,TGI,IGROV1 ovarian,10.9 µM
same,GI50,K-562 leukemia,1.47 µM
same,TGI,K-562 leukemia,> 100 µM
same,GI50,KM12 colon,1.67 µM
same,TGI,KM12 colon,3.92 µM
same,GI50,LOX IMVI melanoma,1.53 µM
same,TGI,LOX IMVI melanoma,3.08 µM
same,GI50,M14 melanoma,2.56 µM
same,TGI,M14 melanoma,9.3 µM
same,GI50,MALME-3M melanoma,2.09 µM
same,TGI,MALME-3M melanoma,6.11 µM
same,GI50,MCF7 breast,1.76 µM
same,TGI,MCF7 breast,14.9 µM
same,GI50,MDA-MB-231 breast,3.32 µM
same,TGI,MDA-MB-231 breast,13.4 µM
same,GI50,MDA-MB-435,2.3 µM
same,TGI,MDA-MB-435,7 µM
same,GI50,MOLT-4 leukemia,1.83 µM
same,TGI,MOLT-4 leukemia,> 100 µM
same,GI50,NCI-H226 lung,10.7 µM
same,TGI,NCI-H226 lung,51.2 µM
same,GI50,NCI-H23 lung,2.9 µM
same,TGI,NCI-H23 lung,11.1 µM
same,GI50,NCI-H460 lung,2.34 µM
same,TGI,NCI-H460 lung,7.12 µM
same,GI50,NCI-H522 lung,0.19 µM
same,TGI,NCI-H522 lung,0.473 µM
same,GI50,NCI/ADR-RES ovarian,3.48 µM
same,TGI,NCI/ADR-RES ovarian,97.2 µM
same,GI50,OVCAR-3 ovarian,1.16 µM
same,TGI,OVCAR-3 ovarian,2.85 µM
same,GI50,OVCAR-4 ovarian,2.17 µM
same,TGI,OVCAR-4 ovarian,8.47 µM
same,GI50,OVCAR-5 ovarian,3.51 µM
same,TGI,OVCAR-5 ovarian,13.6 µM
same,GI50,OVCAR-8 ovarian,2.76 µM
same,TGI,OVCAR-8 ovarian,20.9 µM
same,GI50,PC-3 prostate,2.22 µM
same,TGI,PC-3 prostate,11 µM
same,GI50,RPMI-8226 leukemia,0.547 µM
same,TGI,RPMI-8226 leukemia,8.7 µM
same,GI50,RXF 393 renal,1.76 µM
same,TGI,RXF 393 renal,3.42 µM
same,GI50,SF-268 CNS,2.12 µM
same,TGI,SF-268 CNS,10.3 µM
same,GI50,SF-295 CNS,6.07 µM
same,TGI,SF-295 CNS,19.1 µM
same,GI50,SF-539 CNS,2.07 µM
same,TGI,SF-539 CNS,4.77 µM
same,GI50,SK-MEL-2 melanoma,2.35 µM
same,TGI,SK-MEL-2 melanoma,6.34 µM
same,GI50,SK-MEL-28 melanoma,3.53 µM
same,TGI,SK-MEL-28 melanoma,12.9 µM
same,GI50,SK-MEL-5 melanoma,2.05 µM
same,TGI,SK-MEL-5 melanoma,4.3 µM
same,GI50,SK-OV-3 ovarian,7.18 µM
same,TGI,SK-OV-3 ovarian,21 µM
same,GI50,SN12C renal,2.77 µM
same,TGI,SN12C renal,12.9 µM
same,GI50,SNB-19 CNS,3.07 µM
same,TGI,SNB-19 CNS,12 µM
same,GI50,SNB-75 CNS,3.61 µM
same,TGI,SNB-75 CNS,20.9 µM
same,GI50,SR leukemia,1.51 µM
same,TGI,SR leukemia,> 100 µM
same,GI50,SW-620 colon,2.1 µM
same,TGI,SW-620 colon,5.44 µM
same,GI50,T-47D breast,1.66 µM
same,TGI,T-47D breast,22.1 µM
same,GI50,TK-10 renal,2.36 µM
same,TGI,TK-10 renal,8.19 µM
same,GI50,U251 CNS,2 µM
same,TGI,U251 CNS,10.5 µM
same,GI50,UACC-257 melanoma,2.37 µM
same,TGI,UACC-257 melanoma,7.18 µM
same,GI50,UACC-62 melanoma,1.8 µM
same,TGI,UACC-62 melanoma,4.53 µM
same,GI50,UO-31 renal,1.1 µM
same,TGI,UO-31 renal,2.4 µM
